Reference: article PMC9049205 (RSC Advances, 2020)
Like-named read-outs stand apart in the source and are kept apart here.

What was measured:
[1] = tested on: influenza virus (A/PR/8/34 H1N1 strain); assay: organism not typed; format: cell-based, Influenza A/PR/8/34 (H1N1); settings: for EC50: 48 h, read-out: Anti-influenza virus activity EC50
influenza A virus = settings: in vitro; cited from earlier work
avian influenza A H5N1 = settings: mouse, in vivo; cited from earlier work

## COc1ccc(-c2noc(C)c2C(=O)N2CCC(c3ccc([N+](=O)[O-])cc3Cl)CC2)c(OC)c1 [Compound 1f, (4-(2-Chloro-4-nitrophenyl)piperidin-1-yl)(3-(2,4-dimethoxyphenyl)-5-methylisoxazol-4-yl)methanone]
[1]
  SI (selectivity index: CC50/EC50): 13.68
  anti-influenza activity (in words): excellent activity than ribavirin
[1]; MDCK
  EC50: 2.036 ± 0.009 µM

## COc1nc2ccccc2cc1-c1noc(C)c1C(=O)N1CCC(c2ccc([N+](=O)[O-])cc2Cl)CC1 [Compound 1e, (4-(2-Chloro-4-nitrophenyl)piperidin-1-yl)(3-(2-methoxyquinolin-3-yl)-5-methylisoxazol-4-yl)methanone]
[1]
  SI (selectivity index: CC50/EC50): 2.52
  anti-influenza activity (in words): moderate activity
[1]; MDCK
  EC50: 9.905 ± 0.01 µM

## CSc1ccccc1-c1noc(C)c1C(=O)N1CCC(c2ccc([N+](=O)[O-])cc2Cl)CC1 [Compound 1c, (4-(2-Chloro-4-nitrophenyl)piperidin-1-yl)(5-methyl-3-(2-(methylthio)phenyl)isoxazol-4-yl)methanone]
[1]
  SI (selectivity index: CC50/EC50): 398.41
  anti-influenza activity (in words): excellent activity than ribavirin
[1]; MDCK
  EC50: 0.502 ± 0.002 µM

## (5-Benzyl-3-methylisoxazol-4-yl)(4-(2-chloro-4-nitrophenyl) piperidin-1-yl)methanone [Compound 1j]
[1]
  anti-influenza activity (in words): moderate activity
  EC50: 19.41 ± 0.012 µM

## (4-(2-Chloro-4-nitrophenyl)piperidin-1-yl)(3-methyl-5-styrylisoxazol-4-yl)methanone [Compound 1i]
[1]
  anti-influenza activity (in words): moderate activity
  EC50: 34.483 ± 0.014 µM

## Cc1onc(-c2ccccc2)c1C(=O)N1CCC(c2ccc([N+](=O)[O-])cc2Cl)CC1 [Compound 1a, (4-(2-Chloro-4-nitrophenyl)piperidin-1-yl)(5-methyl-3-phenylisoxazol-4yl)methanone]
[1]
  SI (selectivity index: CC50/EC50): 22.02
  anti-influenza activity (in words): excellent activity than ribavirin
[1]; MDCK
  EC50: 0.898 ± 0.004 µM

## Cc1onc(-c2cccc(Cl)c2Cl)c1C(=O)N1CCC(c2ccc([N+](=O)[O-])cc2Cl)CC1 [Compound 1d, (4-(2-Chloro-4-nitrophenyl)piperidin-1-yl)(3-(2,3-dichlorophenyl)-5-methylisoxazol-4-yl)methanone]
[1]
  anti-influenza activity (in words): moderate activity
[1]; MDCK
  EC50: 21.572 ± 0.015 µM

## Cc1onc(-c2ccco2)c1C(=O)N1CCC(c2ccc([N+](=O)[O-])cc2Cl)CC1 [Compound 1h, (4-(2-Chloro-4-nitrophenyl)piperidin-1-yl)(3-(furan-2-yl)-5-methylisoxazol-4-yl)methanone]
[1]
  anti-influenza activity (in words): moderate activity
[1]; MDCK
  EC50: 16.226 ± 0.012 µM

## Cc1onc(-c2ccccc2)c1C(=O)N1CCN(c2ccc([N+](=O)[O-])cc2Cl)CC1 [nucleozin, Nucleozin]
Influenza A virus
  median effective concentration (EC50), influenza A virus replication: nanomolar
Avian influenza A H5N1
  protection of mice challenged with lethal doses of avian influenza A H5N1: protected mice

## COc1ccccc1-c1noc(C)c1C(=O)N1CCC(c2ccc([N+](=O)[O-])cc2Cl)CC1 [Compound 1b, (4-(2-Chloro-4-nitrophenyl)piperidin-1-yl)(3-(2-methoxyphenyl)-5-methylisoxazol-4-yl)methanone]
[1]
  SI (selectivity index: CC50/EC50): 272.93
  anti-influenza activity (in words): excellent activity than ribavirin
[1]; MDCK
  EC50: 0.253 ± 0.001 µM

## NC(=O)c1ncn([C@@H]2O[C@H](CO)[C@@H](O)[C@H]2O)n1 [Ribavirin, reference compound]
[1]
  SI (selectivity index: CC50/EC50): 6.37
[1]; MDCK
  EC50: 9.891 ± 0.06 µM

## Cc1onc(-c2ccccc2F)c1C(=O)N1CCC(c2ccc([N+](=O)[O-])cc2Cl)CC1 [Compound 1g, (4-(2-Chloro-4-nitrophenyl)piperidin-1-yl)(3-(2-fluorophenyl)-5-methylisoxazol-4-yl)methanone]
[1]
  SI (selectivity index: CC50/EC50): 12.27
  anti-influenza activity (in words): excellent activity than ribavirin
[1]; MDCK
  EC50: 1.356 ± 0.008 µM
